# Source: ChEMBL document CHEMBL6109079, “Discovery of novel pyrimidinetrione derivatives as DprE1 inhibitors with potent antimycobacterial activities” (Eur J Med Chem, 2025)
# Activity calls are given as the source filed them. The calls are words filed in the database; no cut-off is given here.
# Assays:
# [1] = Inhibition of DprE1 (unknown origin) preincubated with FAD followed by compound addition and measured after 2 mins by fluorescence based microplate reader; set-up: species or system Bacteria
# [2] = tested on: Mycobacterium tuberculosis; test: Antibacterial activity against Mycobacterium tuberculosis H37Ra assessed as inhibition of bacterial growth at 50 uM incubated for 3 weeks by absorbance based microplate reader relative to control; type: functional; conditions: 504 h
# [3] = tested on: Mycobacterium tuberculosis; test: Antibacterial activity against Mycobacterium tuberculosis H37Ra assessed as inhibition of bacterial growth incubated for 1 weeks by absorbance based microplate reader; type: functional; conditions: 168 h
# [4] = tested on: Mycobacterium tuberculosis; test: Antibacterial activity against Mycobacterium tuberculosis H37Ra assessed as inhibition of bacterial growth at 10 uM incubated for 3 weeks by absorbance based microplate reader relative to control; type: functional; conditions: 504 h
# [5] = tested on: Mycobacterium tuberculosis; test: Antibacterial activity against Mycobacterium tuberculosis H37Rv assessed as inhibition of bacterial growth at 10 uM incubated for 3 weeks by absorbance based microplate reader relative to control; type: functional; conditions: 504 h
# [6] = Cytotoxicity against human THP-1 cells assessed as cell viability at 200 uM incubated for 24 hrs by CCK-8 assay relative to control; type: toxicity, cell-based; conditions: read-out: Activity
# [7] = Cytotoxicity against human THP-1 cells assessed as reduction in cell viability incubated for 24 hrs by CCK-8 assay; type: toxicity, cell-based
# [8] = Selectivity index, ratio of CC50 for cytotoxicity against human THP-1 cells to MIC50 for antibacterial activity against Mycobacterium tuberculosis H37Ra; type: toxicity, cell-based; conditions: read-out: Selectivity Index
# [9] = tested on: Mycobacterium tuberculosis; test: Antibacterial activity against Mycobacterium tuberculosis H37Ra infected in PMA-differentiated human THP-1 cells assessed as reduction in colony forming units measured after 3 weeks by absorbance based assay; type: functional, organism-based; conditions: dose 10-100 µM
# [10] = Binding affinity to recombinant DprE1 (unknown origin) assessed as dissociation constant incubated for 10 mins by MST analysis; set-up: species or system Bacteria
# [11] = tested on: Mycobacterium tuberculosis; test: Antibacterial activity against Mycobacterium tuberculosis H37Rv infected in PMA-differentiated human THP-1 cells assessed as reduction in colony forming units at 100 uM measured after 3 weeks by absorbance based assay; type: functional, organism-based
smiles,measurement,setting,value
CC[C@@H](C)N1C(=O)NC(=O)/C(=C\NNC(=O)c2ccncc2)C1=O,IC50,[1],50.4 µM
same,inhibition at 50 µM,[2],100%
same,MIC50,[3],2.5 µM
same,inhibition at 10 µM,[4],100%
same,inhibition at 10 µM,[5],100%
same,"viability at 24 h, 200 µM",[6],100%
same,CC50 at 24 h,[7],> 200 µM
same,selectivity ratio,[8],> 68.1
O=C1NC(=O)N(Cc2ccccc2)C(=O)/C1=C/NNC(=O)c1cccc(Cl)c1,IC50,[1],24.3 µM
CC(=O)NC[C@H]1CN(c2ccc(N3CCOCC3)c(F)c2)C(=O)O1 [LINEZOLID],MIC50,[3],1.67 µM
same,selectivity ratio,[8],> 120
Cc1ccc(S(=O)(=O)C(=O)NN/C=C2\C(=O)NC(=O)N(Cc3ccccc3)C2=O)cc1,IC50,[1],62 µM
C=CCN1C(=O)NC(=O)/C(=C\NNC(=O)c2ccccc2)C1=O,IC50,[1],15.3 µM
O=C1NC(=O)N(CCc2ccccc2)C(=O)/C1=C/NNC(=O)c1cccnc1,IC50,[1],24.8 µM
O=C1NC(=O)N(Cc2ccccc2)C(=O)/C1=C/NNC(=O)c1ccc(O)cc1,IC50,[1],8.56 µM
O=C(Cc1ccccc1)NN/C=C1\C(=O)NC(=O)N(Cc2ccccc2)C1=O,IC50,[1],12.3 µM
O=C1NC(=O)N(Cc2ccccc2)C(=O)/C1=C/NNC(=O)c1cccnc1,IC50,[1],28.8 µM
COCC(=O)NN/C=C1\C(=O)NC(=O)N(Cc2ccccc2)C1=O,IC50,[1],> 100 µM
O=C1NC(=O)N(C2CC2)C(=O)/C1=C/NNC(=O)c1ccncc1,IC50,[1],20.3 µM
same,inhibition at 50 µM,[2],100%
same,MIC50,[3],1.12 µM
same,inhibition at 10 µM,[4],100%
same,inhibition at 10 µM,[5],100%
same,"viability at 24 h, 200 µM",[6],100%
same,CC50 at 24 h,[7],> 200 µM
same,selectivity ratio,[8],> 179
same,Activity,[9],Dose-dependent-effect
same,Kd,[10],2.23 µM
O=C1NC(=O)C(=CNNC(=O)c2ccncc2)C(=O)N1,IC50,[1],> 100 µM
same,inhibition at 50 µM,[2],100%
same,MIC50,[3],1.78 µM
same,inhibition at 10 µM,[4],100%
same,inhibition at 10 µM,[5],100%
same,"viability at 24 h, 200 µM",[6],100%
same,CC50 at 24 h,[7],> 200 µM
same,selectivity ratio,[8],> 112
C=CCN1C(=O)NC(=O)/C(=C\NNC(=O)c2cccc3ncccc23)C1=O,IC50,[1],11.1 µM
C=CCN1C(=O)NC(=O)/C(=C\NNC(=O)c2ccnc3ccccc23)C1=O,IC50,[1],12.8 µM
O=C1NC(=O)N(Cc2ccccc2)C(=O)/C1=C/NNC(=O)c1cccc([N+](=O)[O-])c1,IC50,[1],42.5 µM
C#CCN1C(=O)NC(=O)/C(=C\NNC(=O)c2ccncc2)C1=O,IC50,[1],12.7 µM
same,inhibition at 50 µM,[2],100%
same,MIC50,[3],1.07 µM
same,inhibition at 10 µM,[4],100%
same,inhibition at 10 µM,[5],100%
same,"viability at 24 h, 200 µM",[6],100%
same,CC50 at 24 h,[7],> 200 µM
same,selectivity ratio,[8],> 187
same,Activity,[9],Dose-dependent-effect; Best Bactericidal Effect Observed
same,Activity,[11],Active
same,Kd,[10],0.068 µM
O=C1NC(=O)N(Cc2ccccc2)C(=O)/C1=C/NNC(=O)c1cccc(O)c1,IC50,[1],6.49 µM
CC(C)(C)C(=O)NN/C=C1\C(=O)NC(=O)N(Cc2ccccc2)C1=O,IC50,[1],> 100 µM
CC[C@@H](C)N1C(=O)NC(=O)/C(=C\NNC(=O)c2ccccc2)C1=O,IC50,[1],13.4 µM
O=C1NC(=O)N(Cc2ccccc2)C(=O)/C1=C/NNC(=O)c1ccc2ccccc2c1,IC50,[1],10.8 µM
O=C1NC(=O)N(C2CCCCC2)C(=O)/C1=C/NNC(=O)c1cccnc1,IC50,[1],30.4 µM
CN1C(=O)NC(=O)/C(=C\NNC(=O)c2ccncc2)C1=O,IC50,[1],50 µM
same,inhibition at 50 µM,[2],100%
same,MIC50,[3],1.4 µM
same,inhibition at 10 µM,[4],100%
same,inhibition at 10 µM,[5],100%
same,"viability at 24 h, 200 µM",[6],100%
same,CC50 at 24 h,[7],> 200 µM
same,selectivity ratio,[8],> 143
O=C(CO)NN/C=C1\C(=O)NC(=O)N(Cc2ccccc2)C1=O,IC50,[1],> 100 µM
